Where two headings read alike, the source gives them in different places.

For experiment [1], the system named is Geobacillus stearothermophilus spores. The experiment is described as follows: Hydrogen peroxide neutralizers in BI recovery medium, spore outgrowth after STERRAD 100S cycle. The format is cell-based. Also noted: key to Negative Control / Positive Control: Pos*/Neg*—positive (yellow) or negative (purple) was discolored by the additive; Pos*/Neg*—positive (yellow) or negative (purple) was discolored by the additive; Neg^3—positive control did not grow. The method, then:
This example compares the neutralization effectiveness of different additives in the biological indicators recovery medium. The additives (neutralizers) were added to the recovery media used in the 3M ATTEST 1292 Rapid Readout Biological Indicators. Catalase, L-cysteine, sodium thiosulfate, D-ethionine, S-methyl-cysteine, S-benzyl-L-cysteine, thiodiproprionic acid, potassium ferricyanide and sodium pyruvate were all purchased from Sigma-Aldrich Corporation, St. Louis, Mo. Isoascorbic acid was purchased from Alfa Aesar, Ward Hill, Mass. Methionine was purchased from Calbiochem, EMD Chemicals, Gibbstown, N.J.
3M ATTEST 1292 Biological Indicators were steam sterilized to kill the existing spore population. Two sets of 3M ATTEST 1292 BIs were evaluated, one set contained the paper spore carrier used in the commercially available indicator. In the second set, the spore carrier was replaced with fiberglass strips, commercially available as […] 230-11.0 (Crane &Co., Inc., Dalton, Mass.). The steam sterilized BIs were then exposed in a STERRAD 100S hydrogen peroxide/plasma sterilization cycle. Immediately following the hydrogen peroxide/plasma sterilization, the BIs containing media with and without additives were inoculated with less than 100 Geobacillus stearothermophilus spores recovered from a 3M ATTEST 1292 BI spore strip. The indicators were incubated at 60° C. (+/−2° C.) for 7 days and observed for growth, indicated by a color change from purple to yellow. A positive and negative control was tested for each additive. The positive controls were steam sterilized and inoculated with less than 100 spores. The negative controls were steam sterilized.

The test system is the same in experiment [2]. The experiment is described as follows: Remediation of residual hydrogen peroxide, spore recovery method with sodium thiosulfate. The format is cell-based.
Setting [3] is: additive 1 g/l, CRANEGLAS fiberglass carrier, 7 days.
Where [4] appears, read: additive 1 g/l, paper spore carrier, 7 days.
[5] abbreviates: additive 1 g/l, steam sterilized and inoculated with less than 100 spores, no H2O2.
[6] abbreviates: additive 1 g/l, steam sterilized, not inoculated.
Setting [7] is: additive 2 g/l, CRANEGLAS fiberglass carrier, 7 days.
[8] abbreviates: additive 2 g/l, paper spore carrier, 7 days.
Setting [9] is: additive 2 g/l, steam sterilized and inoculated with less than 100 spores, no H2O2.
[10] abbreviates: additive 2 g/l, steam sterilized, not inoculated.
Setting [11] is: additive 4 g/l, CRANEGLAS fiberglass carrier, 7 days.
[12] abbreviates: additive 4 g/l, paper spore carrier, 7 days.
The mark [13] stands for this setting: additive 4 g/l, steam sterilized and inoculated with less than 100 spores, no H2O2.
Where [14] appears, read: additive 4 g/l, steam sterilized, not inoculated.
The mark [15] stands for this setting: additive 8 g/l, CRANEGLAS fiberglass carrier, 7 days.
The mark [16] stands for this setting: additive 8 g/l, paper spore carrier, 7 days.
Where [17] appears, read: additive 8 g/l, steam sterilized and inoculated with less than 100 spores, no H2O2.
Setting [18] is: additive 8 g/l, steam sterilized, not inoculated.

For `N[C@@H](CS)C(=O)O` [L-cysteine], the “No. Pos. CRANEGLAS” value in experiment [1] (setting [3]), in experiment [1] (setting [7]), in experiment [1] (setting [11]) and in experiment [1] (setting [15]) was 4 each time. Further, the “No. Pos. Paper” value in experiment [1] (setting [4]) is given as 1; in experiment [1] (setting [8]) it was 0; in experiment [1] (setting [12]), 3; in experiment [1] (setting [16]) it was 3. Besides, the “Positive Control” value in experiment [1] (setting [5]), in experiment [1] (setting [9]), in experiment [1] (setting [13]) and in experiment [1] (setting [17]) was “Pos” each time. Further, the “Negative Control” value in experiment [1] (setting [6]), in experiment [1] (setting [10]), in experiment [1] (setting [14]) and in experiment [1] (setting [18]) was “Neg” each time.

As to `CCSCC[C@@H](N)C(=O)O` [D-ethionine], the “No. Pos. CRANEGLAS” value in experiment [1] (setting [3]), in experiment [1] (setting [7]), in experiment [1] (setting [11]) and in experiment [1] (setting [15]) was 4 each time. For the same molecule, the “No. Pos. Paper” value in experiment [1] (setting [4]) worked out at 2; in experiment [1] (setting [8]), 0; in experiment [1] (setting [12]) it was 2; in experiment [1] (setting [16]), 3. Moreover, the “Positive Control” value in experiment [1] (setting [5]), in experiment [1] (setting [9]), in experiment [1] (setting [13]) and in experiment [1] (setting [17]) was “Pos” throughout. Moreover, the “Negative Control” value in experiment [1] (setting [6]), in experiment [1] (setting [10]), in experiment [1] (setting [14]) and in experiment [1] (setting [18]) was “Neg” in each case.

As for `CC(=O)C(=O)[O-].[Na+]` [Sodium pyruvate, sodium pyruvate], the “No. Pos. Paper” value in experiment [1] (setting [4]) worked out at 0; in experiment [1] (setting [8]), 2; in experiment [1] (setting [12]), 3; in experiment [1] (setting [16]), 3. The “Positive Control” value in experiment [1] (setting [5]), in experiment [1] (setting [9]), in experiment [1] (setting [13]) and in experiment [1] (setting [17]) was “Pos” each time. Further, the “Negative Control” value in experiment [1] (setting [6]), in experiment [1] (setting [10]), in experiment [1] (setting [14]) and in experiment [1] (setting [18]) was “Neg” throughout.

`O=S([O-])([O-])=S.[Na+].[Na+]` [Sodium thiosulfate, sodium thiosulfate]: in experiment [1], the “Additive level that effectively neutralized the paper carriers” value is on record as 1 gram per liter; the “Negative Control” value was “Neg and Neg*”; the “No. Pos. CRANEGLAS” value is 4; the “No. Pos. Paper” value was determined as 3. In experiment [1], the “Positive Control” value is recorded as “Pos”. Besides, in experiment [2], the “Spore recovery ability (in words)” value is recorded as “good spore recovery agent”.

With `CSC[C@H](N)C(=O)O` [S-methyl-cysteine], the “No. Pos. CRANEGLAS” value in experiment [1] (setting [3]), in experiment [1] (setting [7]), in experiment [1] (setting [11]) and in experiment [1] (setting [15]) was 4 each time. The “No. Pos. Paper” value in experiment [1] (setting [4]) was determined as 0; in experiment [1] (setting [8]) it was 0; in experiment [1] (setting [12]), 2; in experiment [1] (setting [16]), 3. In addition, the “Positive Control” value in experiment [1] (setting [5]) was “Pos”; in experiment [1] (setting [9]) it was “Pos”; in experiment [1] (setting [13]), “Pos”; in experiment [1] (setting [17]), “Pos*”. The “Negative Control” value in experiment [1] (setting [6]), in experiment [1] (setting [10]), in experiment [1] (setting [14]) and in experiment [1] (setting [18]) was “Neg” each time.

For `N[C@@H](CSCc1ccccc1)C(=O)O` [S-benzyl-L-cysteine], the “No. Pos. CRANEGLAS” value in experiment [1] (setting [3]), in experiment [1] (setting [7]) and in experiment [1] (setting [11]) was 4 in each case. Further, the “No. Pos. Paper” value in experiment [1] (setting [4]), in experiment [1] (setting [8]) and in experiment [1] (setting [12]) was 0 throughout. Also, the “Positive Control” value in experiment [1] (setting [5]), in experiment [1] (setting [9]) and in experiment [1] (setting [13]) was “Pos” throughout. The “Negative Control” value in experiment [1] (setting [6]), in experiment [1] (setting [10]) and in experiment [1] (setting [14]) was “Neg” in each case.

As for `O=C(O)CCSCCC(=O)O` [Thiodiproprionic acid, thiodiproprionic acid], the “No. Pos. CRANEGLAS” value in experiment [1] (setting [3]) was determined as 1; in experiment [1] (setting [7]), 3; in experiment [1] (setting [11]) it was 3; in experiment [1] (setting [15]), 3. Besides, the “No. Pos. Paper” value in experiment [1] (setting [4]) came to 0; in experiment [1] (setting [8]), 0; in experiment [1] (setting [12]), 0; in experiment [1] (setting [16]) it was 3. For the same molecule, the “Positive Control” value in experiment [1] (setting [5]) is on record as “Pos”; in experiment [1] (setting [9]), “Neg^3”; in experiment [1] (setting [13]), “Neg^3”; in experiment [1] (setting [17]), “Pos”. Moreover, the “Negative Control” value in experiment [1] (setting [6]), in experiment [1] (setting [10]), in experiment [1] (setting [14]) and in experiment [1] (setting [18]) was “Neg” throughout.

For the molecule `O=C1O[C@H]([C@H](O)CO)C(O)=C1O` [Isoascorbic acid], the “No. Pos. CRANEGLAS” value in experiment [1] (setting [3]) is reported as 0; in experiment [1] (setting [7]), 4; in experiment [1] (setting [11]), 4; in experiment [1] (setting [15]), 4. Besides, the “No. Pos. Paper” value in experiment [1] (setting [4]), in experiment [1] (setting [8]), in experiment [1] (setting [12]) and in experiment [1] (setting [16]) was 3 in each case. Moreover, the “Positive Control” value in experiment [1] (setting [5]) is “Pos”; in experiment [1] (setting [9]) it was “Pos”; in experiment [1] (setting [13]), “Pos*”; in experiment [1] (setting [17]), “Pos*”. Besides, the “Negative Control” value in experiment [1] (setting [6]) was “Neg”; in experiment [1] (setting [10]), “Neg*”; in experiment [1] (setting [14]), “Neg*”; in experiment [1] (setting [18]), “Neg*”. The “Additive level that effectively neutralized the paper carriers” value in experiment [1] (paper carriers) is listed as 1 gram per liter.

As for `CSCC[C@H](N)C(=O)O` [Methionine], the “No. Pos. CRANEGLAS” value in experiment [1] (setting [3]), in experiment [1] (setting [7]), in experiment [1] (setting [11]) and in experiment [1] (setting [15]) was 4 each time. Besides, the “No. Pos. Paper” value is recorded as 0 in experiment [1] (setting [4]), 0 in experiment [1] (setting [8]), 3 in experiment [1] (setting [12]) and 3 in experiment [1] (setting [16]). Besides, the “Positive Control” value in experiment [1] (setting [5]), in experiment [1] (setting [9]), in experiment [1] (setting [13]) and in experiment [1] (setting [17]) was “Pos” throughout. Further, the “Negative Control” value in experiment [1] (setting [6]), in experiment [1] (setting [10]), in experiment [1] (setting [14]) and in experiment [1] (setting [18]) was “Neg” in each case.

B1: Catalase (protein, UniProt P00432 2-527, looked up)
Catalase: ADNRDPASDQMKHWKEQRAAQKPDVLTTGGGNPVGDKLNSLTVGPRGPLLVQDVVFTDEMAHFDRERIPERVVHAKGAGAFGYFEVTHDITRYSKAKVFEHIGKRTPIAVRFSTVAGESGSADTVRDPRGFAVKFYTEDGNWDLVGNNTPIFFIRDALLFPSFIHSQKRNPQTHLKDPDMVWDFWSLRPESLHQVSFLFSDRGIPDGHRHMNGYGSHTFKLVNANGEAVYCKFHYKTDQGIKNLSVEDAARLAHEDPDYGLRDLFNAIATGNYPSWTLYIQVMTFSEAEIFPFNPFDLTKVWPHGDYPLIPVGKLVLNRNPVNYFAEVEQLAFDPSNMPPGIEPSPDKMLQGRLFAYPDTHRHRLGPNYLQIPVNCPYRARVANYQRDGPMCMMDNQGGAPNYYPNSFSAPEHQPSALEHRTHFSGDVQRFNSANDDNVTQVRTFYLKVLNEEQRKRLCENIAGHLKDAQLFIQKKAVKNFSDVHPEYGSRIQALLDKYNEEKPKNAVHTYVQHGSHLSAREKANL
notes: enzyme neutralizer from Sigma-Aldrich, 226 units added per vial
For B1, in experiment [1], the “Neutralization of residual hydrogen peroxide (in words)” value is reported as “sufficiently neutralized”. For the same molecule, the “No. Pos. CRANEGLAS” value in experiment [1] (226 units added per vial, CRANEGLAS fiberglass carrier, 7 days) is 4. In addition, the “No. Pos. Paper” value in experiment [1] (226 units added per vial, paper spore carrier, 7 days) stood at 3. In experiment [1] (226 units added per vial, steam sterilized and inoculated), the “Positive Control” value is “Pos”. Also, the “Negative Control” value in experiment [1] (226 units added per vial, steam sterilized, not inoculated) was “Neg”.

The values above are taken from patent US20150159192A1, “STERILIZATION INDICATORS INCLUDING A NEUTRALIZER AND METHODS” (3M INNOVATIVE PROPERTIES COMPANY, priority 2010, published 2015).
